Laboratory results from patent US9783530B2, “Factor Xla inhibitors” (Merck Sharp & Dohme Corp., priority 2014, dated 2017).

Legend:
[1] = target: purified human Factor XIa (Homo sapiens (Human), UniProt P03951); assay: Factor XIa Assay; format: biochemical; details: purified human Factor XIa 40 pM, substrate Z-Gly-Pro-Arg-AFC, pH 7.4; read-out: FXIa IC50
Description: The effectiveness of a compound of the present invention as an inhibitor of Coagulation Factor XIa can be determined using a relevant purified serine protease, and an appropriate synthetic substrate. The rate of hydrolysis of the chromogenic or fluorogenic substrate by the relevant serine protease was measured both in the absence and presence of compounds of the present invention. Assays were conducted at room temperature or at 37° C. […] A decrease in the rate of fluorescence change in the presence of inhibitor is indicative of enzyme inhibition. Such methods are known to one skilled in the art. […]
Factor XIa determinations were made in 50 mM HEPES buffer at pH 7.4 containing 150 mM NaCl, 5 mM CaCl2, and 0.1% PEG 8000 (polyethylene glycol; JT Baker or Fisher Scientific). Determinations were made using purified human Factor XIa at a final concentration of 40 pM (Sekisui Diagnostics) and he synthetic substrate, Z-Gly-Pro-Arg-AFC, TFA salt (Sigma #C0980) at a concentration of 100 µM.
Activity assays were performed by diluting a stock solution of substrate at least tenfold to a final concentration ≦0.1 Km into a solution containing enzyme or enzyme equilibrated with inhibitor. Times required to achieve equilibration between enzyme and inhibitor were determined in control experiments. Initial velocities of product formation in the absence (Vo) or presence of inhibitor (Vi) were measured. Assuming competitive inhibition, and that unity is negligible compared Km/[S], [I]/e, and [I]/e (where [S], [I], and e respectively represent the total concentrations, of substrate, inhibitor and enzyme), the equilibrium constant (Ki) for dissociation of the inhibitor from the enzyme can be obtained from the dependence of Vo/Vi on [I] shown in the following equation.

[2] = target: purified Human plasma kallikrein (Homo sapiens (Human), UniProt P03952); assay: Kallikrein Assay; format: biochemical; details: purified Human plasma kallikrein 0.5 nM, substrate Acetyl-K-P-R-AFC, pH 7.4; read-out: P. KLK IC50
Description: The effectiveness of a compound of the present invention as an inhibitor of Kallikrein can be determined using a relevant purified serine protease, and an appropriate synthetic substrate. The rate of hydrolysis of the chromogenic or fluorogenic substrate by the relevant serine protease was measured both in the absence and presence of compounds of the present invention. Assays were conducted at room temperature or at 37° C. […] A decrease in the rate of fluorescence change in the presence of inhibitor is indicative of enzyme inhibition. Such methods are known to one skilled in the art. The results of this assay are expressed as the inhibitory constant, Ki.
Kallikrein determinations were made in 50 mM HEPES buffer at pH 7.4 containing 150 mM NaCl, 5 mM CaCl2, and 0.1% PEG 8000 (polyethylene glycol; Fisher Scientific). Determinations were made using purified Human plasma kallikrein at a final concentration of 0.5 nM (Enzyme Research Laboratories) and the synthetic substrate, Acetyl-K-P-R-AFC (Sigma # C6608) at a concentration of […].
Activity assays were performed by diluting a stock solution of substrate at least tenfold to a final concentration ≦0.2 Km into a solution containing enzyme or enzyme equilibrated with inhibitor. Times required to achieve equilibration between enzyme and inhibitor were determined in control experiments. The reactions were performed under linear progress curve conditions and fluorescence increase measured at 405 Ex/510 Em nm. Values were converted to percent inhibition of the control reaction (after subtracting 100% Inhibition value). IC50 was determined by inflection point from a four parameter logistic curve fit. Ki was calculated using the Cheng Prusoff equation, Ki=IC50/(1+([S]/Km)).

purified Human plasma kallikrein, sequence (P03952 391-638): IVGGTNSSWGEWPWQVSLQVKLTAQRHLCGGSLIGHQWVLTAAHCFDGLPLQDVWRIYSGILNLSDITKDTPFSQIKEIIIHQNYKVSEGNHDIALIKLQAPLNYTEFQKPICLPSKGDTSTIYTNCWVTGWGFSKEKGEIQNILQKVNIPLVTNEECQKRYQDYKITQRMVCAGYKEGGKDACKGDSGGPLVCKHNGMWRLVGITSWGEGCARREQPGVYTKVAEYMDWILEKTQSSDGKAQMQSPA
purified Human plasma kallikrein, sequence (P03952 20-390 partner): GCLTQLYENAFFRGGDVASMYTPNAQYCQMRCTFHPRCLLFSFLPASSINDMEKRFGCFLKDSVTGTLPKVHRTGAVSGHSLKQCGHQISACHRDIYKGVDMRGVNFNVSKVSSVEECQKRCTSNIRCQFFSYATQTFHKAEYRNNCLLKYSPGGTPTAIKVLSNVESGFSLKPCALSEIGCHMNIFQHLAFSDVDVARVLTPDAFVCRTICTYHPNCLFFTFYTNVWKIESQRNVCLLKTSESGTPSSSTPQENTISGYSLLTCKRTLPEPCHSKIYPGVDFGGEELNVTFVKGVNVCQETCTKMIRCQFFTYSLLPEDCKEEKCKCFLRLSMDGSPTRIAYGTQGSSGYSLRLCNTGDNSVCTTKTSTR
purified human Factor XIa, sequence (P03951 388-625): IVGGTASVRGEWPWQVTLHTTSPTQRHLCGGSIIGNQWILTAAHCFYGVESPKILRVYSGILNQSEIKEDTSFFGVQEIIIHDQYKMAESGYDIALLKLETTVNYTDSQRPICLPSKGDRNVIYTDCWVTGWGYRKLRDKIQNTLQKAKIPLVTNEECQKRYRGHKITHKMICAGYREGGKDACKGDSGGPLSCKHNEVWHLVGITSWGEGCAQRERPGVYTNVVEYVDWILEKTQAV
purified human Factor XIa, sequence (P03951 19-387 partner): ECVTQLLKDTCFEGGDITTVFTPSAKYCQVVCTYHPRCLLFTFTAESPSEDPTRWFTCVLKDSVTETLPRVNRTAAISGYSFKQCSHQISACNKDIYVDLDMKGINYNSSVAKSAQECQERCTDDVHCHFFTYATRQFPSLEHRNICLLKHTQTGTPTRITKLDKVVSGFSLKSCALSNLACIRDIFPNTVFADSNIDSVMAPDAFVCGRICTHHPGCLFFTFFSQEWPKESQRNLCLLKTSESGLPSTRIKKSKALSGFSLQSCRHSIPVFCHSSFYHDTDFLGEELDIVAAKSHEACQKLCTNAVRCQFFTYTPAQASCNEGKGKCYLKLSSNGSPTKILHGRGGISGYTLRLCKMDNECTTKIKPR

| IC50 [1] [nM] | IC50 [2] [nM] | SMILES |
| --- | --- | --- |
| 109 | 91.4 | O=C(Nc1ccc2cn[nH]c2c1)C(Cc1ccccc1)c1ccc(-c2c(F)ccc(Cl)c2F)c[n+]1[O-] (racemic) [Example 5, 2-[5-(3-chloro-2,6-difluorophenyl)-1-oxidopyridin-2-yl]-N-1H-indazol-6-yl-3-phenylpropanamide] |
| 0.24 | 1.9 | O=C(Nc1ccc2cn[nH]c2c1)C(Cc1ccccc1)c1ccc(-c2cc(Cl)ccc2-n2cnnn2)c[n+]1[O-] (racemic) [Example 6, 2-{5-[5-chloro-2-(1H-tetrazol-1-yl)phenyl]-1-oxidopyridin-2-yl}-N-1H-indazol-6-yl-3-phenylpropanamide] |
| 30.6 | 1880 | NCc1ccc(Cl)cc1-c1ccc(C(CC2CC2)C(=O)Nc2ccc(C(=O)O)cc2)[n+]([O-])c1 (racemic) [Example 40, 4-[(2-{5-[2-(aminomethyl)-5-chlorophenyl]-1-oxidopyridin-2-yl}-3-cyclopropylpropanoyl)amino]benzoic acid] |
| 8.45 | 1610 | O=C(O)c1ccc(NC(=O)C(CC2CC2)c2ccc(-c3cc(Cl)ccc3-n3cc(CO)nn3)c[n+]2[O-])cc1 (racemic) [Example 42, 4-{[2-(5-{5-chloro-2-[4-(hydroxymethyl)-1H-1,2,3-triazol-1-yl]phenyl}-1-oxidopyridin-2-yl)-3-cyclopropylpropanoyl]amino}benzoic acid] |
| 0.19 | 25.1 | O=C(O)c1ccc(NC(=O)C(CC2CC2)c2ccc(-c3c(-n4cnnn4)ccc(Cl)c3F)c[n+]2[O-])cc1 (racemic) [Example 50, 4-[(2-{5-[3-chloro-2-fluoro-6-(1H-tetrazol-1-yl)phenyl]-1-oxidopyridin-2-yl}-3-cyclopropylpropanoyl)amino]benzoic acid] |
| 111 | 45 | O=C(NC12CCC(C(=O)O)(CC1)CC2)C(Cc1ccccc1)c1ccc(-c2c(F)ccc(Cl)c2F)c[n+]1[O-] (single isomer, unassigned) [Example 15, 4-({2-[5-(3-chloro-2,6-difluorophenyl)-1-oxidopyridin-2-yl]-3-phenylpropanoyl}amino) bicyclo[2.2.2]octane-1-carboxylic acid] |
| 0.76 | 144 | O=C(NC12CCC(C(=O)O)(CC1)CC2)C(Cc1ccccc1)c1ccc(-c2cc(Cl)ccc2-n2cnnn2)c[n+]1[O-] (single isomer, unassigned) [Example 17, 4-[(2-{5-[5-chloro-2-(1H-tetrazol-1-yl)phenyl]-1-oxidopyridin-2-yl}-3-phenylpropanoyl)amino] bicyclo[2.2.2]octane-1-carboxylic acid] |
| 4.1 | 9.2 | COC(=O)NC12CCC(NC(=O)C(Cc3ccccc3)c3ccc(-c4cc(Cl)ccc4-n4cnnn4)c[n+]3[O-])(CC1)CC2 (single isomer, unassigned) [Example 19, methyl {4-[(2-{5-[5-chloro-2-(1H-tetrazol-1-yl)phenyl]-1-oxidopyridin-2-yl}-3-phenylpropanoyl)amino]bicyclo[2.2.2]oct-1-yl}carbamate] |
| 9.39 | 24.6 | COc1cc(C(Cc2ccccc2)C(=O)Nc2ccc(C(=O)O)cc2)[n+]([O-])cc1-c1cc(Cl)ccc1C#N (single isomer, unassigned) [Example 23, 2-(1-((4-carboxyphenyl)amino)-1-oxo-3-phenylpropan-2-yl)-5-(5-chloro-2-cyanophenyl)-4-methoxypyridine 1-oxide] |
| 0.29 | 0.7 | COc1cc(C(Cc2ccccc2)C(=O)Nc2ccc(C(=O)O)cc2)[n+]([O-])cc1-c1cc(Cl)ccc1C#N (single isomer, unassigned) [Example 24, 2-(1-((4-carboxyphenyl)amino)-1-oxo-3-phenyl-propan-2-yl)-5-(5-chloro-2-cyanophenyl)-4-methoxypyridine 1-oxide] |
| 4.24 | 80.4 | N#Cc1ccc(Cl)c(F)c1-c1ccc(C(CC2CC2)C(=O)Nc2ccc(C(=O)O)cc2)[n+]([O-])c1 (single isomer, unassigned) [Example 30, 4-({2-[5-(3-chloro-6-cyano-2-fluorophenyl)-1-oxidopyridin-2-yl]-3-cyclopropylpropanoyl}amino)benzoic acid] |
| 3.37 | 692 | O=C(O)c1ccc(NC(=O)C(CC2CC2)c2ccc(-c3cc(Cl)ccc3-n3cnnn3)c[n+]2[O-])c(Cl)c1 (single isomer, unassigned) [Example 32, 3-chloro-4-[(2-{5-[5-chloro-2-(1H-tetrazol-1-yl)phenyl]-1-oxidopyridin-2-yl}-3-cyclopropylpropanoyl)amino]benzoic acid] |
| 5.65 | 408 | O=C(O)c1ccc(NC(=O)C(CC2CC2)c2ccc(-c3cc(Cl)ccc3-c3cnco3)c[n+]2[O-])cc1 (single isomer, unassigned) [Example 35, 4-[(2-{5-[5-chloro-2-(1,3-oxazol-5-yl)phenyl]-1-oxidopyridin-2-yl}-3-cyclopropylpropanoyl)amino]benzoic acid] |
| 18.9 | 830 | O=C(O)c1ccc(NC(=O)C(CC2CC2)c2ccc(-c3cc(Cl)ccc3OC(F)(F)F)c[n+]2[O-])cc1 (single isomer, unassigned) [Example 39, 4-[(2-{5-[5-chloro-2-(trifluoromethoxy)phenyl]-1-oxidopyridin-2-yl}-3-cyclopropylpropanoyl)amino]benzoic acid] |
| 18 | 3260 | O=C(O)c1ccc(NC(=O)C(CC2CC2)c2ccc(-c3cc(Cl)ccc3-n3cnnn3)c[n+]2[O-])cc1F (single isomer, unassigned) [Example 44, 4-[(2-{5-[5-chloro-2-(1H-tetrazol-1-yl)phenyl]-1-oxidopyridin-2-yl}-3-cyclopropylpropanoyl)amino]-2-fluorobenzoic acid] |
| 0.07 | 17.6 | O=C(O)c1ccc(NC(=O)C(CC2CC2)c2ccc(-c3cc(Cl)ccc3-n3cnnn3)c[n+]2[O-])cc1F (single isomer, unassigned) [Example 45, 4-[(2-{5-[5-chloro-2-(1H-tetrazol-1-yl)phenyl]-1-oxidopyridin-2-yl}-3-cyclopropylpropanoyl)amino]-2-fluorobenzoic acid] |
| 15.1 | 2350 | Cc1cc(C(=O)O)ccc1NC(=O)C(CC1CC1)c1ccc(-c2cc(Cl)ccc2-n2cnnn2)c[n+]1[O-] (single isomer, unassigned) [Example 47, 4-[(2-{5-[5-chloro-2-(1H-tetrazol-1-yl)phenyl]-1-oxidopyridin-2-yl}-3-cyclopropylpropanoyl)amino]-3-methylbenzoic acid] |
| 0.46 | 83.1 | Cc1cc(NC(=O)C(CC2CC2)c2ccc(-c3cc(Cl)ccc3-n3cnnn3)c[n+]2[O-])ccc1C(=O)O (single isomer, unassigned) [Example 48, 4-[(2-{5-[5-chloro-2-(1H-tetrazol-1-yl)phenyl]-1-oxidopyridin-2-yl}-3-cyclopropylpropanoyl)amino]-2-methylbenzoic acid] |
| – | 85.6 | O=C(O)c1ccc(NC(=O)C(CC2CC2)c2ccc(-c3cc(Cl)ccc3-n3cc(C(F)F)nn3)c[n+]2[O-])cc1 (single isomer, unassigned) [Example 52, 4-{[2-(5-{5-chloro-2-[4-(difluoromethyl)-1H-1,2,3-triazol-1-yl]phenyl}-1-oxidopyridin-2-yl)-3-cyclopropylpropanoyl]amino}benzoic acid] |
| 4.7 | 678 | O=C(O)c1ccc(NC(=O)C(CC2CC2)c2ccc(-c3cc(Cl)ccc3-n3ccnn3)c[n+]2[O-])cc1 (single isomer, unassigned) [Example 54, 4-[(2-{5-[5-chloro-2-(1H-1,2,3-triazol-1-yl)phenyl]-1-oxidopyridin-2-yl}-3-cyclopropylpropanoyl)amino]benzoic acid] |
